Holding throughout (assay type): cell-based, mouse
For data set [1], the system named is MEFs undergoing nuclear reprogramming. Nature of the data set: Reprogramming efficiency by FACS analysis of SSEA-1 expression. To be noted: vehicle 27.8±3.1, mean±SEM, n=3. An excerpt:
(§1) Mouse embryonic fibroblasts (MEFs) were transduced with HIV-based viral vectors encoding OCT3/4, SOX2, and KLF4 either in the presence (4F) or absence of c-MYC (3F) to produce iPS clones that met pluripotent criteria including expression of stem cell markers, embryoid body differentiation, teratoma formation, diploid aggregation, and contribution to organogenesis (Martinez-Fernandez et al., Circ. Res., 105:648-656 (2009); Nelson et al., Clin. Transl. Sci., 2:118-126 (2009); and Nelson et al., Circulation, 120:408-416 (2009)). Alternatively, iPS cells were derived with a viPS (Open Biosystems) kit. iPS cells were induced and maintained in ES Cell qualified DMEM supplemented with 15% FBS, 25 mM glucose, 2 mM Glutamax (Invitrogen), and 1 mM sodium pyruvate. In reprogramming experiments, media was supplemented with 0.25 or 1.25 mM 2DG (Sigma), 100 μM BrPA (Sigma) or 5 mM DCA (Sigma). Reprogramming efficiency was quantified using an alkaline phosphatase staining kit (Stemgent) or FACS analysis of SSEA-1 expression (Millipore) on a LSR II flow cytometer.
In general terms: Flow cytometry measures light scatter and fluorescence of single cells or particles in a stream.

In a further data set the test system is parental MEF population. Nature of the data set: Growth of the parental MEF population. To be noted: 1.25 mM 2-DG, 100 μM BrPA, 5 mM DCA.
Another data set relates to MEFs. Kind of data set: 1H NMR metabolomic footprinting of extracellular metabolites of treated MEFs. To be noted: control experiments; 1.25 mM 2-DG, 100 μM BrPA, 5 mM DCA versus vehicle; n=3. On the procedure:
For footprinting of extracellular metabolites, 540 μL of media collected following 24 hours of culture was added to 60 μL of D2O (Sigma) containing 5 mM sodium 3-(trimethylsilyl)propionate-2,2,3,3-d4 (TSP) (Sigma) for chemical shift reference and 81.84 mM formate (Sigma) for peak quantification reference as described elsewhere (Turner et al., Stem Cells, 26:1547-1555 (2008)). Briefly, MEFs, iPS cells, and R1ESC were maintained in DMEM containing 15% FBS, pyruvate, L-glutamine, nonessential amino acids, 2-mercaptoethanol, and LIF in 6 well plates at 37° C. in a humidified incubator with 95% air and 5% CO2 (Martinez-Fernandez et al., Circ Res., 25; 105(7):648-56 (2009)). […]
For intracellular metabolite fingerprinting, neutralized perchloric acid extracts were concentrated with a SpeedVac and suspended in 600 μL of 100 mM phosphate buffer (pH 7.0) in D2O (Sigma) containing 0.5 mM TSP as described elsewhere (Beckonert et al., Nat. Protoc., 2:2692-2703 (2007)). […] Following Fourier transformation, spectra were autophased with metabonomic phase correction, baseline corrected using a Bernstein polynomial fit and referenced to the TSP peak (0.00 ppm) using MestReNova 5.3.2 (MestRelab Research). p-toluenesulfonic acid (Sigma) was utilized as a reference standard to calibrate the formate concentration for quantitative analysis (Shao et al., J. Chromatogr. A, 1138:305-308 (2007)). […]

In data set [2] the test system is MEFs undergoing nuclear reprogramming. Kind of data set: Reprogramming efficiency by alkaline phosphatase staining. To be noted: 2-DG during reprogramming (media supplemented with 0.25 or 1.25 mM 2DG).
Description: as §1

As for `O=C(O)C(=O)CBr` [BrPA, 3-bromopyruvic acid], in data set [1] (100 μM BrPA during reprogramming), the “% SSEA1 positive cells (reprogramming efficiency)” value (“% SSEA1 positive cells” below) was 19.8±1.0 % SSEA1 positive cells. For the same molecule, the “Cell growth of parental MEF population” value in the data set on parental MEF population is on record as “without impairing cell growth”. Moreover, the “Extracellular metabolite profile of treated MEFs” value in the data set with MEFs is “consistent with inhibition of glycolysis and stimulation of oxidative metabolism”.
For `O=C(O)C(Cl)Cl` [DCA, dichloroacetate], the “% SSEA1 positive cells” value in data set [1] (5 mM DCA during reprogramming) is reported as 17.3±1.5 % SSEA1 positive cells. The “Cell growth of parental MEF population” value with parental MEF population is on record as “without impairing cell growth”.
Turning to `O=CC[C@@H](O)[C@H](O)[C@H](O)CO` [2-DG, 2-deoxyglucose], in data set [2], the “Induction of the pluripotent marker alkaline phosphatase” value is given as “blunted induction of the pluripotent marker alkaline phosphatase”. Further, in data set [1] (1.25 mM 2-DG during reprogramming), the “% SSEA1 positive cells” value is on record as 0.9±0.3 % SSEA1 positive cells. For the same molecule, the “Cell growth of parental MEF population” value with parental MEF population is “without impairing cell growth”. Besides, the “Extracellular metabolite profile of treated MEFs” value in the data set on MEFs was “consistent with inhibition of glycolysis and stimulation of oxidative metabolism”.

The record behind these values is patent publication US9822343B2, “Methods and materials for obtaining induced pluripotent stem cells” (priority 2011, dated 2017).
